In US20090234017A1, “TREATING SKIN DISORDERS” (priority 2005, published 2009):

Test system: psoriasis
Assay: Case report: psoriasis in a patient treated with midodrine for hypotension

COc1ccc(OC)c(C(O)CNC(=O)CN)c1 (centres unmarked) [midodrine]
improvement of the patient's psoriasis (person with moderate psoriasis, midodrine five mg three times a day for three months): ≥ 90% | psoriasis after discontinuing use of midodrine (same patient, after discontinued use of midodrine): psoriasis returned
